In patent publication US20240197694A1, “MODIFIED PROTEINS AND PROTEIN BINDERS” (Cullgen (Shanghai), Inc., priority 2021, published 2024):

Target: T1, DCAF1 (1058-1396) (Homo sapiens, UniProt Q9Y4B6)
T1 construct: a fragment of a DCAF1 protein that includes amino acid residues A1058 to E1396; His6 (N, cleaved yes); made in house; host or cells: Sf9 insect cells (Bac-to-Bac baculovirus, pFastBacHT vector)
Assay: Surface plasmon resonance (SPR) binding assay, compound binding to DCAF1
Conditions: immobilized DCAF1 (1058-1396), steady state affinity model, 25° C.
Description: Binding affinities of specific exemplary compounds to DCAF1 (1058-1396), which is a fragment of a DCAF1 protein that includes amino acid residues A1058 to E1396 were determined by a surface plasmon resonance (SPR) assay. Briefly, purified DCAF1 (1058-1396) proteins were immobilized at a density of 9,000-11,000 resonance units (RUs) on a CMS sensor chip. Sensorgrams were recorded at different concentrations of compounds in multi-cycle kinetic format. Data were analyzed using a steady state affinity model through Biacore Evaluation Software to provide equivalent dissociation constants (Kd).
Binding affinities of compounds to DCAF1 were determined by a surface plasmon resonance (SPR) assay. Purified DCAF1 (1058-1396) proteins were immobilized on a CMS sensor chip, and a dose range of compound solutions were injected in multi-cycle kinetic format. Data were analyzed using a steady state model to provide equivalent dissociation constants (Kd).
Protein Expression and Purification: Human DCAF1 (1058-1396) (UniPro: Q9Y4B6) coding sequences were cloned into pFastBacHT vector and were expressed in Sf9 cells using Bac-to-Bac baculovirus expression system (Thermo Fisher Scientific). The expression construct for DCAF1 (1058-1396) included a N-terminal His6-tag to facilitate the purification. DCAF1 (1058-1396) proteins were obtained from supernatants of cell lysates and purified through sequential application of Ni affinity chromatography (Ni-NTA column, Bio-Rad), Tag removal using TEV protease, and size-exclusion chromatography (Superdex 200 column, GE Healthcare).
Surface plasmon resonance (SPR) binding assays: SPR studies were performed on a Biacore X100 plus or T200 instrument (GE Healthcare). Immobilization of purified DCAF1 (1058-1396) was carried out at 25° C. using a CMS sensor chip. The surface was pre-equilibrated in HBS-EP running buffer (10 mM HEPES, pH 7.4, 150 mM NaCl, 3 mM EDTA, 0.05% P20), before being activated with EDC/NHS. DCAF1 (1058-1396) was immobilized through amino groups to a density of 9,000-12,000 resonance units (RUs) on flow cell channel 2 (FC2), whereas flow cell channel 1 (FC1) was used as reference. Both DCAF1 immobilized and reference surfaces were deactivated with 1 M ethanolamine.
Interaction experiments were performed at 25° C. The compounds were prepared and serially diluted in HBS-EP running buffer containing final 2% DMSO (6-point two-fold serial dilution, 100 μM -3.125 μM final concentration of compounds). Compound Solutions were injected individually in multi-cycle kinetic format without regeneration (flow rate 30 μL/min, association time 60 s, dissociation time 60 s). Sensorgrams from reference surfaces and blank injections were subtracted from the raw data (double-referenced) and the data was solvent-corrected prior to analysis. Data were analyzed using a steady state affinity model through Biacore Evaluation Software to provide equivalent dissociation constants (Kd).

T1 sequence (Q9Y4B6 1058-1396): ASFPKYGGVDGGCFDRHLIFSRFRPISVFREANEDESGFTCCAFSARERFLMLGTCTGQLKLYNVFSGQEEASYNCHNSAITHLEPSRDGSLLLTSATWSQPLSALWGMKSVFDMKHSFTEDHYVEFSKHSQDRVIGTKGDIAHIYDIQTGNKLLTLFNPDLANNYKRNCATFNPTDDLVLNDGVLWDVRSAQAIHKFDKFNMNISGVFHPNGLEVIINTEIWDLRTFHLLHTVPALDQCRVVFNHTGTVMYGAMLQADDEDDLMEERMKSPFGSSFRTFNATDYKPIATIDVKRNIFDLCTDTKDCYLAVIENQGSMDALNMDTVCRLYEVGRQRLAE

SMILES | Kd [µM]
Cc1ccc2c(c1)[C@@H]1CN(C)CC[C@H]1N2 (racemic) [CPD-032, trans-2,8-dimethyl-2,3,4,4a,5,9b-hexahydro-1H-pyrido [4,3-b]indole] | > 100
Cc1ccc2c(c1)[C@H]1CN(C)CC[C@H]1N2 (racemic) [CPD-033, cis-2,8-dimethyl-2,3,4,4a,5,9b-hexahydro-1H-pyrido[4,3-b]indole] | > 100
Cc1ccc2c(c1)[C@@H]1CN(C)CC[C@H]1N2C (racemic) [CPD-034, trans-2,5,8-trimethyl-2,3,4,4a,5,9b-hexahydro-1H-pyrido[4,3-b]indole] | > 100
Cc1ccc2c(c1)[C@@H]1CN(C)CC[C@H]1N2C(=O)/C=C/c1nccs1 (racemic) [CPD-035, (E)-1-(trans-2,8-dimethyl-1,2,3,4,4a,9b-hexahydro-5H-pyrido [4,3-b]indol-5-yl)-3-(thiazol-2-yl)prop-2-en-1-one] | > 100
Cc1ccc2c(c1)[C@H]1CN(C)CC[C@H]1N2C (racemic) [CPD-036, cis-2,5,8-trimethyl-2,3,4,4a,5,9b-hexahydro-1H-pyrido [4,3-b]indole] | > 100
Cc1ccc2c(c1)[C@H]1CN(C)CC[C@H]1N2C(=O)/C=C/c1nccs1 (racemic) [CPD-037, (E)-1-(cis-2,8-dimethyl-1,2,3,4,4a,9b-hexahydro-5H-pyrido [4,3-b]indol-5-yl)-3-(thiazol-2-yl)prop-2-en-1-one] | > 100
Cc1cccc2c1[C@@H]1CN(C)CC[C@H]1N2 (racemic) [CPD-039, trans-2,9-dimethyl-2,3,4,4a,5,9b-hexahydro-1H-pyrido [4,3-b]indole] | > 100
Cc1cccc2c1[C@@H]1CN(C)CC[C@H]1N2C (racemic) [CPD-040, trans-2,5,9-trimethyl-2,3,4,4a,5,9b-hexahydro-1H-pyrido[4,3-b]indole] | > 100
Cc1cccc2c1[C@H]1CN(C)CC[C@H]1N2 (racemic) [CPD-041, cis-2,9-dimethyl-2,3,4,4a,5,9b-hexahydro-1H-pyrido[4,3-b]indole] | > 100
Cc1cccc2c1[C@H]1CN(C)CC[C@H]1N2C (racemic) [CPD-042, cis-2,5,9-trimethyl-2,3,4,4a,5,9b-hexahydro-1H-pyrido[4,3-b]indole] | > 100
Cn1cccc1CNCc1ccncc1 [CPD-001, 1-(1-methyl-1H-pyrrol-2-yl)-N-(pyridin-4-ylmethyl)methanamine] | 40 to 70
Cn1cccc1CNCc1cccnc1 [CPD-002, 1-(1-methyl-1H-pyrrol-2-yl)-N-(pyridin-3-ylmethyl)methanamine] | > 100
Cn1cccc1CNCc1ccccn1 [CPD-003, 1-(1-methyl-1H-pyrrol-2-yl)-N-(pyridin-2-ylmethyl)methanamine] | > 100
NCCCCCCn1cccc1C(=O)NCc1ccncc1 [CPD-004, 1-(6-aminohexyl)-N-(pyridin-4-ylmethyl)-1H-pyrrole-2-carboxamide] | 40 to 70
NCCCCCCn1cccc1CNCc1ccncc1 [CPD-005, 6-(2-(((pyridin-4-ylmethyl)amino)methyl)-1H-pyrrol-1-yl)hexan-1-amine] | 40 to 70
NCCOCCOCCOCCn1cccc1CNCc1ccncc1 [CPD-006, 2-(2-(2-(2-(2-(((pyridin-4-ylmethyl)amino)methyl)-1H-pyrrol-1-yl)ethoxy)ethoxy)ethoxy)ethan-1-amine] | 40 to 70
CN1Cc2ccccc2CC1CNc1ncccc1F (centres unmarked) [CPD-007, 3-fluoro-N-((2-methyl-1,2,3,4-tetrahydroisoquinolin-3-yl)methyl)pyridin-2-amine] | > 100
Clc1ccc2[nH]c3c(c2c1)CN(CCc1cnn[nH]1)CC3 [CPD-008, 2-(2-(1H-1,2,3-triazol-5-yl)ethyl)-8-chloro-2,3,4,5-tetrahydro-1H-pyrido[4,3-b]indole] | 40 to 70
CC(C)c1ccc2[nH]c3c(c2c1)CN(CCc1cnn[nH]1)CC3 [CPD-009, 2-(2-(1H-1,2,3-triazol-5-yl)ethyl)-8-isopropyl-2,3,4,5-tetrahydro-1H-pyrido[4,3-b]indole] | 40 to 70

SMILES | Kd [µM]
CC(C)N1CCc2c(c3ccccc3n2CC(=O)O)C1 [CPD-010, 2-(2-isopropyl-1,2,3,4-tetrahydro-5H-pyrido[4,3-b]indol-5-yl)acetic acid] | > 100
CC(C)(C)c1ccc2[nH]c3c(c2c1)CN(CCc1cnn[nH]1)CC3 [CPD-011, 2-(2-(1H-1,2,3-triazol-5-yl)ethyl)-8-(tert-butyl)-2,3,4,5-tetrahydro-1H-pyrido[4,3-b]indole] | 40 to 70
Fc1ccc2[nH]c3c(c2c1)CN(CCc1cnn[nH]1)CC3 [CPD-012, 2-(2-(1H-1,2,3-triazol-5-yl)ethyl)-8-fluoro-2,3,4,5-tetrahydro-1H-pyrido[4,3-b]indole] | ≤ 40
Cc1ccc2[nH]c3c(c2c1)CN(CCc1cnn[nH]1)CC3 [CPD-013, 2-(2-(1H-1,2,3-triazol-5-yl)ethyl)-8-methyl-2,3,4,5-tetrahydro-1H-pyrido[4,3-b]indole] | 40 to 70
NCCCCCCn1c2c(c3cc(F)ccc31)CN(CCc1cnn[nH]1)CC2 [CPD-014, 6-(2-(2-(1H-1,2,3-triazol-5-yl)ethyl)-8-fluoro-1,2,3,4-tetrahydro-5H-pyrido[4,3-b]indol-5-yl)hexan-1-amine] | 40 to 70
CN1Cc2ccccc2CC1CNC(=O)c1cncc(O)n1 (centres unmarked) [CPD-015, 6-hydroxy-N-((2-methyl-1,2,3,4-tetrahydroisoquinolin-3-yl)methyl)pyrazine-2-carboxamide] | > 100
NCCOCCOCCOCCn1c2c(c3cc(F)ccc31)CN(CCc1cnn[nH]1)CC2 [CPD-016, 2-(2-(2-(2-(2-(2-(1H-1,2,3-triazol-5-yl)ethyl)-8-fluoro-1,2,3,4-tetrahydro-5H-pyrido[4,3-b]indol-5-yl)ethoxy)ethoxy)ethoxy)ethan-1-amine] | 40 to 70
CN1Cc2cc(NCCOCCOCCOCCN)ccc2CC1CNc1ncccc1F (centres unmarked) [CPD-017, N-(2-(2-(2-(2-aminoethoxy)ethoxy)ethoxy)ethyl)-3-(((3-fluoropyridin-2-yl)amino)methyl)-2-methyl-1,2,3,4-tetrahydroisoquinolin-7-amine] | 40 to 70
CN1Cc2cc(NCCCCCCN)ccc2CC1CNc1ncccc1F (centres unmarked) [CPD-018, N1-(3-(((3-fluoropyridin-2-yl)amino)methyl)-2-methyl-1,2,3,4-tetrahydroisoquinolin-7-yl)hexane-1,6-diamine] | 40 to 70
Cc1ccc2[nH]c3c(c2c1)CN(C)CC3 [CPD-019, 2,8-dimethyl-2,3,4,5-tetrahydro-1H-pyrido[4,3-b]indole] | 40 to 70
Cc1ccc2c(c1)c1c(n2C)CC[N+](C)(C)C1 [CPD-020, 2,2,5,8-tetramethyl-2,3,4,5-tetrahydro-1H-2λ^4-pyrido[4,3-b]indol-3-ylium] | > 100
Cc1ccc2[nH]c3c(c2c1)C[N+](C)(C)CC3 [CPD-021, 2,2,8-trimethyl-2,3,4,5-tetrahydro-1H-2λ^4-pyrido[4,3-b]indol-3-ylium] | > 100
Cc1ccc2c(c1)c1c(n2C)CCN(C)C1 [CPD-022, 2,5,8-trimethyl-2,3,4,5-tetrahydro-1H-pyrido[4,3-b]indole] | > 100
COC(=O)NCCN1CCc2ccccc2C1 [CPD-023, methyl (2-(3,4-dihydroisoquinolin-2(1H)-yl)ethyl)carbamate] | 70 to 100
Cc1ccc(CNCc2cnc[nH]2)o1 [CPD-024, N-((1H-imidazol-5-yl)methyl)-1-(5-methylfuran-2-yl) methanamine] | > 100
COc1cc(CNCc2cnc[nH]2)ccn1 [CPD-025, N-((1H-imidazol-5-yl)methyl)-1-(2-methoxypyridin-4-yl) methanamine] | > 100
O=c1cc(CNCc2cnc[nH]2)cc[nH]1 [CPD-026, 4-((((1H-imidazol-5-yl)methyl)amino)methyl)pyridin-2(1H)-one] | > 100
COc1cncc(CNCc2cnc[nH]2)c1 [CPD-027, N-((1H-imidazol-5-yl)methyl)-1-(5-methoxypyridin-3-yl) methanamine] | > 100
COc1cc(C)cc(CNCc2cnc[nH]2)c1 [CPD-028, N-((1H-imidazol-5-yl)methyl)-1-(3-methoxy-5-methylphenyl) methanamine] | > 100
